From patent EP0524718A1, “Polyurethane hydrogel compositions for iontophoretic drug delivery” (GENSIA PHARMACEUTICALS, INC., priority 1991, dated 1993)

Test: Drug stability in hydrogel matrix electrode pads (isocratic HPLC assay)
Type: physicochemical
Details: in Hypol Hydrogel matrix, room temperature and 4°C, after six months
Experimental: Stability of Arbutamine in electrode pads using the hydrogel matrix prepared from Hypol Hydrogel prepolymer was studied using the 3M Red Dot™ Electrode Construction. […] The matrix incorporating the drug was placed in the 3M Red Dot electrode (after removing the gel supplied with the electrode). The electrode was secured in an aluminum pouch with or without a nitrogen flush (as noted). Drug stability studies were carried out at room temperature and 4°C.

drug degradation: no significant drug degradation
SMILES: Cl.Oc1ccc(CCCCNCC(O)c2ccc(O)c(O)c2)cc1 (stereo not shown) [Arbutamine, 1-(3,4-dihydroxyphenyl)-2-(4-(4-hydroxyphenyl)butylamino)ethanol hydrochloride]
